These are literature values, as cited in article PMC8124228, “New Hybrids Based on Curcumin and Resveratrol: Synthesis, Cytotoxicity and Antiproliferative Activity against Colorectal Cancer Cells” (Molecules, 2021).

The structures appear in SMILES notation. In brackets after ≈: the same amount, converted by molar mass.

One data set deals with SW480 cells. Also noted: method as in doi:10.1007/s00044-018-2202-0. The following applies: SW480, 48 h; cited from earlier work.
Data set [1] deals with tubulin polymerization. Also noted: method as in PMID 26515041. Particulars: evaluated in HCT-116 cells; cited from earlier work.
A further data set concerns SiHa human cancer cells. More on the design: method as in doi:10.1007/s00044-016-1514-1. Particulars: cited from earlier work.
Data set [2] has as its system MDA-MB-231 human cancer cells. More on the design: method as in doi:10.1007/s00044-016-1514-1. The following applies: cited from earlier work.
The test system of data set [3] is PANC-1 human cancer cells. More on the design: method as in doi:10.1007/s00044-016-1514-1. Particulars: cited from earlier work.
The test system of another data set is HepG2 cell line. Particulars: cited from earlier work.
A further data set deals with B16-F10 cell line. Particulars: cited from earlier work.
The subject of a further data set is A549 cell line. The following applies: cited from earlier work.
Data set [4] relates to tubulin polymerization. Particulars: cited from earlier work.

Consider `COc1cc(/C=C/c2ccc3ccc(=O)oc3c2)cc(OC)c1O` [Figure 1H], for which the IC50 in the data set on SW480 cells is 1.01 µM.
Take `COc1cc(/C=C/C(=O)/C=C/c2cc(OC)c(OC)c(OC)c2)ccc1CCc1cn(CCN2C(=O)C(=O)c3ccccc32)nn1`: in the data set with tubulin polymerization [1], the “inhibition of tubulin polymerization at (concentration)” value was 1.2 µM.
`COc1cc(/C=C/c2ccc(NC(=O)CSc3nnc(-c4cccc(C(F)(F)F)c4)o3)cc2)cc(OC)c1` [Resveratrol–oxadiazole hybrid F]: the GI50 (with SiHa human cancer cells; in [2]; in data set [3]) was less than 0.1 µM each time.
With `COc1ccc(/C=C/c2cc(OC)cc(OC)c2/C=C/C(=O)c2ccc(C)c(C)c2)cc1` [Figure 1I], the IC50 in the data set with HepG2 cell line is on record as 0.2 µg/mL (≈ 0.467 µM); in the data set with B16-F10 cell line, 0.1 µg/mL (≈ 0.233 µM); with A549 cell line it was 1.4 µg/mL (≈ 3.27 µM). The “tubulin polymerization inhibitory activity at (concentration)” value with tubulin polymerization [4] is on record as 2.6 µg/mL.

In general, IC50 refers to the concentration that gives 50% inhibition. As a reminder, the GI50 is the concentration giving 50% growth inhibition.
